In PubChem BioAssay (NCI) one finds TGI and GI50 data, which are given here for 9 compounds.

Holding throughout (assay): inhibition of tumour cell growth, NCI panel, 48 h
Assay [1] has as its system MDA-MB-231 breast.
The subject of assay [2] is A498 renal.
In assay [3] the test system is HCT-116 colon.
Assay [4] deals with NCI-H226 lung.
Assay [5] relates to BT-549 breast.
The subject of assay [6] is OVCAR-5 ovarian.
In assay [7] the test system is M14 melanoma.
Assay [8] concerns MDA-MB-435.
The test system of assay [9] is HL-60(TB) leukemia.
Assay [10] deals with UACC-257 melanoma.

Several values for one entry are separate records, joined by “and”; a condition that tells them apart may be missing. Equal values may be shown once.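 Five compound concentrations were applied to cells in 96-well plates for 48 hours; endpoints were derived by simple linear interpolation of the resulting dose-response curve. Abbreviation: GI50, concentration required for 50% inhibition of growth. TGI: total growth inhibition.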

Regarding `COc1cccc(C2CC(C)(O)Oc3cc4c(cc32)OCO4)c1O` (configuration not stated), the TGI in [1] is 67.7 µM; in assay [2] it was greater than 100 µM; in assay [3] it was greater than 69.4 µM; in assay [4], 57.9 µM; in [5], 62.4 µM; in assay [6] it was greater than 95.7 µM. Besides, the TGI in [7] is greater than 65.8 µM; in [8] it was 9.77 µM; in assay [9] it was greater than 59 µM; in [10], greater than 100 µM.

As to `NC(=O)/C=C/C(=O)c1c(Cl)cccc1Cl`, the GI50 in assay [1] is 1230 nM; in assay [2] it was 1.44 µM; in [3], 476 nM; in [4], 2.52 µM; in assay [5], 1.59 µM; in [6], 1.74 µM. The GI50 was 1450 nM in [7], 1300 nM in assay [8], 679 nM in assay [9] and 1380 nM in assay [10]. Besides, the TGI was determined as 2.47 µM in assay [1]; 2.74 µM in assay [2]; 8.25 µM in assay [4]; 3.03 µM in assay [5]; 3.41 µM in assay [6]; 2.76 µM in assay [7]. The TGI came out at 3.48 µM in assay [8], 4.05 µM in [9] and 2.68 µM in [10].

On to `O=C(/C=C/c1ccccc1)CCC1C(=O)c2ccccc2C1=O`, for which the TGI in assay [1], in assay [2], in assay [3], in assay [4], in assay [5] and in assay [6] was greater than 100 µM each time. The TGI in assay [7], in [8], in assay [9] and in assay [10] was greater than 100 µM throughout.

On to `CC(C)NC(=O)OCc1c(COC(=O)NC(C)C)c(-c2cc[n+](COC(=O)C3CC3)cc2)n2c1CCC2`, for which the TGI in assay [1], in assay [2], in assay [3], in assay [4], in assay [5] and in assay [6] was greater than 100 µM throughout. Besides, the TGI in assay [7], in assay [8], in assay [9] and in assay [10] was greater than 100 µM in each case.

Turning to `N#Cc1c(NC(=O)NCc2ccccc2)sc2c1CCCCC2`, the GI50 was 973 nM in assay [1]; 0.218 µM in assay [2]; 528 nM in assay [3]; 1.05 µM in assay [4]; 0.923 µM in assay [5]; 2.05 µM in assay [6]. Further, the GI50 is 415 nM in assay [7], 220 nM in assay [8], 286 nM in assay [9] and 1500 nM in [10]. The TGI was 13.9 µM in assay [1]; 1.1 µM in [2]; greater than 100 µM in assay [3]; greater than 28.8 µM in [4]; greater than 100 µM in assay [5]; greater than 100 µM in assay [6]. For the same compound, the TGI in assay [7] is greater than 100 µM; in assay [8] it was 0.564 µM; in [9], 0.843 µM; in [10], greater than 100 µM.

Regarding `CN(C)CCNC(=O)c1cccc2ccc(-c3ccc(O)cc3)nc12`, the TGI in assay [1] was 11.6 µM; in assay [2] it was 12.1 µM; in assay [3] it was 2.78 µM and 10.7 µM; in [4] it was 6.33 µM and 3.6 µM; in assay [5], 19.5 µM; in assay [6] it was 9.11 µM. Moreover, the TGI is 2.75 µM in assay [7]; 15.5 µM in assay [8]; 3.36 µM in assay [9]; 8.29 µM and 10.1 µM in [10]. Besides, the GI50 in assay [3] is 879 nM; in assay [4], 0.94 µM; in assay [10], 1060 nM.

Turning to `O=C(O)COc1ccc2c(=O)c3sc4c(=O)c5ccccc5c(=O)c4c3c(=O)c2c1`, the GI50 in assay [1] was 17800 nM; in assay [2] it was 14.7 µM; in [3], 15700 nM; in assay [4], 15 µM; in assay [5], 6.99 µM; in assay [6] it was 17.7 µM. Further, the GI50 was 2690 nM in assay [7], 1780 nM in assay [8], 24100 nM in assay [9] and 16200 nM in assay [10]. The TGI is 71.7 µM in assay [1]; 28.1 µM in [2]; 63.3 µM in [3]; 41.1 µM in [4]; 21.8 µM in assay [5]; 34.3 µM in [6]. The TGI in [7] worked out at 7.53 µM; in [8], 3.35 µM; in assay [9], 61.3 µM; in assay [10], 34.7 µM.

Take `C/C=C(\C)C(=O)O[C@H]1C=CC(=O)O[C@H]1CCC(=O)[C@H](C)O`: the GI50 in [1] was 16800 nM; in [2], 24.1 µM; in assay [3], 2870 nM; in [4], 15.1 µM; in assay [5] it was 19 µM; in [6] it was 22.4 µM. Moreover, the GI50 in [7] was 14600 nM; in [8], 11800 nM; in assay [9], 7340 nM; in [10], 22600 nM. Also, the TGI in assay [1] turned out to be 32.4 µM; in [2], 56.1 µM; in assay [3], 11.2 µM; in assay [4], 34.8 µM; in [5], 36.8 µM; in assay [6], 50.8 µM. The TGI was 32.8 µM in [7], 27.3 µM in [8], 24.8 µM in assay [9] and greater than 57 µM in assay [10].

Consider `COc1cccc(F)c1C(=O)c1cnc(NC2CCN(S(C)(=O)=O)CC2)nc1N`, for which the GI50 is 2740 nM in assay [1]; 3.58 µM in assay [2]; 1340 nM in assay [3]; 3.72 µM in assay [4]; 5.45 µM in assay [5]; 3.59 µM in assay [6]. Further, the GI50 is 5330 nM in [7], 2480 nM in assay [8], 1440 nM in [9] and 3970 nM in assay [10]. Moreover, the TGI is greater than 22.1 µM in assay [1]; 8.72 µM in [2]; greater than 25 µM in [3]; greater than 18.9 µM in [4]; 16.8 µM in assay [5]; greater than 25 µM in [6]. Also, the TGI in assay [7] was greater than 25 µM; in assay [8] it was greater than 25 µM; in [9], 13.3 µM; in assay [10], 15.3 µM.
